Toxic doses and inconclusive results are not listed. Cut-off read from the data, not from the text of the source: active = T/C of 150% or more; inactive = T/C below 125%.
System: L1210 leukemia ip in BDF1 mice, survival T/C
Experiment: NCI In Vivo Anticancer Drug Screen. Data for tumor model L1210 Leukemia (intraperitoneal) in B6D2F1 (BDF1) mice
Conditions: endpoint: mean survival time, higher = longer survival
Summary of the method: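 Tumor cells were implanted, animals were treated, and survival was followed. The result divides the treated measurement by the vehicle-control measurement.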

Measured: T/C

COc1ccc2c(c1)CCC(=O)O2
inactive: dose: 50.0 mg/kg/injection, schedule: Q01DX001 (ip), vehicle: carboxymethylcellulose (CMC) 100 % of control | dose: 100.0 mg/kg/injection, schedule: Q01DX001 (ip), vehicle: carboxymethylcellulose (CMC) 96 % of control | dose: 100.0 mg/kg/injection, schedule: Q04DX003 (ip), vehicle: saline sonified 102 % of control | dose: 200.0 mg/kg/injection, schedule: Q01DX001 (ip), vehicle: carboxymethylcellulose (CMC) 100 % of control | dose: 200.0 mg/kg/injection, schedule: Q04DX003 (ip), vehicle: saline sonified 104 % of control | dose: 400.0 mg/kg/injection, schedule: Q01DX001 (ip), vehicle: carboxymethylcellulose (CMC) 100 % of control | dose: 400.0 mg/kg/injection, schedule: Q04DX003 (ip), vehicle: saline sonified 102 % of control

CCCCCCCCCCCCN=c1nc(N)ccn1C1OC(CO)C(O)C1O (configuration not stated)
inactive: dose: 12.5 mg/kg/injection, schedule: Q01DX005 (ip), vehicle: saline 110 % of control | dose: 25.0 mg/kg/injection, schedule: Q01DX005 (ip), vehicle: saline 116 % of control

c1ccc(C2=C(c3ccccc3)CSSC2)cc1
inactive: dose: 50.0 mg/kg/injection, schedule: Q04DX003 (ip), vehicle: Klucel (hydroxypropylcellulose) (HPC) 100 % of control | dose: 100.0 mg/kg/injection, schedule: Q04DX003 (ip), vehicle: Klucel (hydroxypropylcellulose) (HPC) 100 % of control | dose: 200.0 mg/kg/injection, schedule: Q04DX003 (ip), vehicle: Klucel (hydroxypropylcellulose) (HPC) 100 % of control

N#CC(=C=[N-])[n+]1ccccc1
inactive: dose: 6.25 mg/kg/injection, schedule: Q01DX009 (ip), vehicle: saline 100 % of control | dose: 12.5 mg/kg/injection, schedule: Q01DX009 (ip), vehicle: saline 100 % of control | dose: 18.8 mg/kg/injection, schedule: Q01DX001 (ip), vehicle: saline 108 % of control | dose: 37.5 mg/kg/injection, schedule: Q01DX001 (ip), vehicle: saline 100 % of control

COc1cc2c(cc1OC)C1CC3(CC4c5cc(OC)c(OC)cc5CCN4CC3CO)C(CO)CN1CC2 (configuration not stated)
inactive: dose: 4.0 mg/kg/injection, schedule: Q04DX003 (ip), vehicle: water 101 % of control | dose: 8.0 mg/kg/injection, schedule: Q04DX003 (ip), vehicle: water 101 % of control | dose: 16.0 mg/kg/injection, schedule: Q04DX003 (ip), vehicle: water 110 % of control | dose: 32.0 mg/kg/injection, schedule: Q04DX003 (ip), vehicle: water 103 % of control | dose: 64.0 mg/kg/injection, schedule: Q04DX003 (ip), vehicle: water 101 % of control

Nc1nc(N)c2nn(-c3ccc(C(=O)O)cc3)nc2n1
inactive: dose: 75.0 mg/kg/injection, schedule: Q01DX001 (ip), vehicle: saline 87 % of control | dose: 150.0 mg/kg/injection, schedule: Q01DX001 (ip), vehicle: saline 86 % of control | dose: 300.0 mg/kg/injection, schedule: Q01DX001 (ip), vehicle: saline 103 % of control

O=C1c2cccc3cc([N+](=O)[O-])cc(c23)C(=O)N1Cc1ccco1
inactive: dose: 100.0 mg/kg/injection, schedule: Q04DX002 (ip), vehicle: saline with Tween-80 95 % of control | dose: 200.0 mg/kg/injection, schedule: Q04DX002 (ip), vehicle: saline with Tween-80 120 % of control | dose: 400.0 mg/kg/injection, schedule: Q04DX002 (ip), vehicle: saline with Tween-80 88 % of control

CN(C)CCC(C(=O)c1ccccc1)c1ccccn1 (configuration not stated)
inactive: dose: 55.0 mg/kg/injection, schedule: Q01DX Z (ip), vehicle: saline 100 % of control | dose: 83.0 mg/kg/injection, schedule: Q01DX Z (ip), vehicle: saline 107 % of control | dose: 125.0 mg/kg/injection, schedule: Q01DX Z (ip), vehicle: saline 96 % of control

CN1c2ccc3ccccc3c2Sc2ccc3ccccc3c21
inactive: dose: 100.0 mg/kg/injection, schedule: Q01DX009 (ip), vehicle: acetone 100 % of control | dose: 100.0 mg/kg/injection, schedule: Q04DX003 (ip), vehicle: saline 94 % of control | dose: 200.0 mg/kg/injection, schedule: Q01DX009 (ip), vehicle: acetone 100 % of control | dose: 200.0 mg/kg/injection, schedule: Q04DX003 (ip), vehicle: saline 95 % of control | dose: 400.0 mg/kg/injection, schedule: Q01DX009 (ip), vehicle: acetone 88 % of control | dose: 400.0 mg/kg/injection, schedule: Q04DX003 (ip), vehicle: saline 97 % of control

C[Si](C)(C)Oc1cccc(O[Si](C)(C)C)c1
inactive: dose: 100.0 mg/kg/injection, schedule: Q04DX003 (ip), vehicle: saline with Tween-80 95 % of control | dose: 200.0 mg/kg/injection, schedule: Q04DX003 (ip), vehicle: saline with Tween-80 96 % of control | dose: 400.0 mg/kg/injection, schedule: Q04DX003 (ip), vehicle: saline with Tween-80 93 % of control

O=[N+]([O-])c1ccc(O)c(/C=N/N2CCN(/N=C/c3cc([N+](=O)[O-])ccc3O)CC2)c1
inactive: dose: 100.0 mg/kg/injection, schedule: Q01DX001 (ip), vehicle: saline 91 % of control | dose: 200.0 mg/kg/injection, schedule: Q01DX001 (ip), vehicle: saline 97 % of control | dose: 400.0 mg/kg/injection, schedule: Q01DX001 (ip), vehicle: saline 97 % of control

CC(=O)OC1C=CCC2C(=O)C3=C(C(=O)c4ccccc4C3=O)C(=O)C12 (configuration not stated)
inactive: dose: 0.25 mg/kg/injection, schedule: Q04DX003 (ip), vehicle: saline with Tween-80 93 % of control | dose: 0.5 mg/kg/injection, schedule: Q04DX003 (ip), vehicle: saline with Tween-80 93 % of control | dose: 1.0 mg/kg/injection, schedule: Q04DX003 (ip), vehicle: saline with Tween-80 89 % of control | dose: 2.0 mg/kg/injection, schedule: Q04DX003 (ip), vehicle: saline with Tween-80 97 % of control | dose: 4.0 mg/kg/injection, schedule: Q04DX003 (ip), vehicle: saline with Tween-80 107 % of control | dose: 6.0 mg/kg/injection, schedule: Q04DX003 (ip), vehicle: saline with Tween-80 103 % of control | dose: 8.0 mg/kg/injection, schedule: Q04DX003 (ip), vehicle: saline with Tween-80 98 % of control | dose: 12.0 mg/kg/injection, schedule: Q04DX003 (ip), vehicle: saline with Tween-80 97 % of control | dose: 16.0 mg/kg/injection, schedule: Q04DX003 (ip), vehicle: saline with Tween-80 98 % of control | dose: 24.0 mg/kg/injection, schedule: Q04DX003 (ip), vehicle: saline with Tween-80 97 % of control | dose: 32.0 mg/kg/injection, schedule: Q04DX003 (ip), vehicle: saline with Tween-80 104 % of control | dose: 48.0 mg/kg/injection, schedule: Q04DX003 (ip), vehicle: saline with Tween-80 97 % of control | dose: 64.0 mg/kg/injection, schedule: Q04DX003 (ip), vehicle: saline with Tween-80 100 % of control | dose: 128.0 mg/kg/injection, schedule: Q04DX003 (ip), vehicle: saline with Tween-80 100 % of control

CC1=CC(=O)[C@@H](O)[C@]2(C)[C@H]3[C@@]4(O)OC[C@]35[C@H]([C@@H](C)[C@H]4O)[C@@H](O)C(=O)O[C@@H]5C[C@@H]12
inactive: dose: 2.5 mg/kg/injection, schedule: Q01DX009 (ip), vehicle: saline 107 % of control | dose: 5.0 mg/kg/injection, schedule: Q01DX009 (ip), vehicle: saline 96 % of control | dose: 10.0 mg/kg/injection, schedule: Q01DX009 (ip), vehicle: saline 102 % of control | dose: 20.0 mg/kg/injection, schedule: Q01DX009 (ip), vehicle: saline 100 % of control

CC1(C)CCC2=C1CC[C@H]1[C@H]2CCC2=CC(=O)CC[C@@]21C
inactive: dose: 50.0 mg/kg/injection, schedule: Q01DX001 (sc), vehicle: steriod suspending solution 102 % of control | dose: 100.0 mg/kg/injection, schedule: Q01DX001 (sc), vehicle: steriod suspending solution 96 % of control | dose: 200.0 mg/kg/injection, schedule: Q01DX001 (sc), vehicle: steriod suspending solution 102 % of control | dose: 400.0 mg/kg/injection, schedule: Q01DX001 (sc), vehicle: steriod suspending solution 102 % of control

Clc1ccc2c(NC3CCC(NC4CCCCC4)CC3)ccnc2c1 (configuration not stated)
inactive: dose: 7.0 mg/kg/injection, schedule: Q01DX Z (ip), vehicle: carboxymethylcellulose (CMC) 102 % of control | dose: 10.0 mg/kg/injection, schedule: Q01DX Z (ip), vehicle: carboxymethylcellulose (CMC) 96 % of control | dose: 16.0 mg/kg/injection, schedule: Q01DX Z (ip), vehicle: carboxymethylcellulose (CMC) 98 % of control
